Consider one substance from US20040109845A1, “Method for inhibiting articular cartilage matrix calcification” (priority 2001, published 2004).

In experiment [1] the test system is tTGase and Factor XIIIa expression in knee articular cartilage and medial meniscus. Nature of the experiment: Immunohistochemistry of cartilage organ culture. Format: cell-based, human. The note with it: organ culture 48 hours. How it is done:
Articular cartilage and medial menisci from normal donors were studied in cartilage organ culture in media supplemented with 1% FCS and 1% L-glutamine, as described in the Methods, following 48 hours of treatment with TGFβ 10 ng/ml, IL-1β (1 ng/ml), or medium alone.
Immunohistochemistry was performed as previously described in detail (30,33,34). In brief, immunohistochemical sections (5 microns) were pretreated with bovine testicular hyaluronidase (0.5 mg/ml at 37° C. for 30 min) and incubated in 5% normal goat or rabbit serum for 20 min prior to avidin/biotin peroxidase staining by the ABC method. Hematoxilin was used as the counterstain. Biotinylated anti-rabbit or anti-goat antibodies served as secondary antibodies. Levamisole was added to block endogenous alkaline phosphatase (AP). Negative controls were nonimmune rabbit or goat serum as a substitute for primary antibody.
Meniscal cells were taken from tissue slices removed from the central regions of the medial and lateral menisci. Where indicated, meniscal organ culture was performed by incubating these slices for b 48 hours in DMEM high glucose containing 1% FCS and 1% L-glutamine (and articular cartilage organ culture performed in the same manner, where indicated). Otherwise, we minced meniscal tissue with a scalpel, incubated in DMEM high glucose containing 2 mg/ml clostridial collagenase, 5% FCS, 1% L-glutamine, 100 units/ml Penicillin and 50 μg/ml Streptomycin (Omega Scientific, Tarzana, Calif.), and incubated on a gyratory shaker at 37° C. until the tissue fragments were digested. Residual multicellular aggregates were removed by sedimentation (1,000×g), and cells were washed three times in DMEM containing 5% FCS.

Experiment [2] concerns meniscal cells and TC28 cells. Description: Matrix calcification, quantitative Alizarin Red S binding assay. Type of experiment: cell-based, human. As to conditions: polyHEME culture up to 10 days; cytokines 10 ng/ml or TGase transfection. On the procedure: TC28 cells and meniscal cells were transfected with empty plasmid or a TGase expression construct, and then transferred to polyHEME and cultured for up to 10 days, as described above. For comparison purposes, control untransfected cells were treated with IL-1 or TGFβ(10 ng/ml each) for up to 10 days. To measure matrix calcification, media and cells were removed from the PolyHEME-coated dishes, and 1 ml Alizarin Red S solution (0.5% v/v Alizarin Red S, pH 5.0) added to washed plates at 23° C. for 10 min. After further washing, 100 mM Cetylpyridium Chloride was added for 10 min to release the remaining calcium-bound Alizarin Red S. The solution was collected and read at OD570, with 1.0 OD570=1 unit of Alizarin Red released per μg of DNA per culture dish. n=6 each, studied in triplicate, and using 6 different knee meniscal donors. *p<0.05.
To promote matrix calcification in short-term cultures, we modified a nonadherent chondrocyte culture system (37), and assessed cells that formed calcifying nodules over 10 days in culture. In brief, meniscal and TC28 cells, at 24 hours after the transfection, were washed and removed from the dish using 0.2 mg/ml EDTA, pH 8.0, then transferred to 6 well plates that had been previously coated with a 10% (wt./v) in 95% ethanol solution of Poly (2-Hydroxyethyl methacrylate) (polyHEME). […]
To assay calcification of the pericellular matrix of meniscal cells and TC28 cells, we used a quantitative Alizarin Red S binding assay (38). […] The solution was collected and read at OD570 on a SpectraMAX microplate reader (Molecular Devices, Sunnyvale, Calif.), with 1 OD570=1 unit of Alizarin Red released per μg of DNA per culture dish. We extracted matrix crystals from plates under each condition using a papain-hypochlorite method (39), and the crystals were embedded in Spurr epoxy resin, sectioned, and viewed on a Philips EM340 transmission electron micrograph and analyzed by electron diffraction (40,41).

Consider “IL-1β: Human recombinant IL-1β purchased from R&D Systems”, for which the “tTGase and Factor XIIIa immunostaining” value in experiment [1] (knee articular cartilage and meniscal cartilage slices, TGFβ 10 ng/ml, IL-1β 1 ng/ml) was “induced increased tTGase and Factor XIIIa immunostaining”. Besides, in experiment [1] (knee articular cartilage), the “Factor XIIIa expression” value is recorded as “up-regulated” and the tTGase expression result is given as “up-regulated tTGase expression”. The “Matrix calcification (bound Alizarin Red S)” value in experiment [2] is reported as “significantly increased matrix calcification”.
